The text below walks through data of patent publication US11458114B2, “Methods and compositions for enhancing synthesis secretion and transport of collagen to increase wound strength” (NORTH CELL PHARMACEUTICALS, INC., priority 2020, dated 2022).

“Also recorded” adds a separate entry of the source. Read-outs that look alike come from different tables or passages of the source.

The subject of one series is tumors. The experiment in a line: SRF given 1-2 hours prior to 3-bromopyruvate: tumor size. It is filed as in vivo. Particulars: 3 bromopyruvate by itself. The protocol:
To date most patients with cancer that are treated with radiation or cancer drugs show a partial reduction of tumor sizes, but in most cases the cancer remains and life expectances increases for a short period of time. This is the case for tumors. Five patients with various cancers were treated with 3-Bromopyruvate, an alkylating agent and a well-known inhibitor of energy metabolism. Results to date have been mixed. The problem with most cancer drugs is not only their toxicity to noncancerous tissue, but is their inability to completely eradicate the cancer. Cancer drugs cause hypoxia in normal noncancerous cells and they destroy tissue and their ability to heal. In mice studies conducted by others, they investigated the chemo preventive activity of 3-bromopyruvate. For the topical treatment the mice were treated with 10-30 mg/5 ml daily and treated for 8 weeks. […] 3-Bromopyruvate also dissociated hexokinase II from mitochondria, reduced hexokinase activity, and blocked energy metabolism in cancer cells, finally triggered cancer cell death and induced apoptosis through caspase-3, and PARP in human lung cancer cell line. The problem with 3-bromopyruvate was its toxicity to normal cells. The formula needed to protect noncancerous cells from 3-bromopyruvate and to enhance its effect on tumors, was the addition of SRF 1-2 hours prior to the administration of the 10 mg of 3-bromopyruvate. […]

The test system of a further series is wounds. Kind of series: Various drugs administered on wounds with or without sodium pyruvate or SRF: erythema rating and days to total re-epithelization. Particulars: for Drugs in commercial formula with SRF erythema / Drugs in commercial formula with sodium pyruvate only erythema / Drugs in commercial formula erythema: Rating 1-10, 1 most erythema, 10 no erythema; for Drugs in commercial formula erythema / Drug in commercial formula Days to healing: drug alone; for Drug in commercial formula with SRF. Days to healing / Drug in commercial formula with sodium pyruvate only. Days to healing / Drug in commercial formula Days to healing: days to total re-epithelization. The protocol:
(§1) All previous studies using pyruvate to treat wounds or be used as an antioxidant used only the sodium salt form of pyruvic acid. The drug products that were tested in previous studies used 1-3% sodium pyruvate and other sodium salts of alpha keto acids by weight 1-3% concentrations in the lotions and triple antibiotic formulations. […]

A further series concerns virally infected cells. Kind of series: Viral plaque formation in virally infected cells. Type of series: cell-based. An excerpt: A commercial cold sore formula was purchased and the enumerated keto acids were placed into it to treat cold sores, both as a combination and singly as well. The commercial formulation by itself was utilized as a control. […] However, when SRF was placed in the cold sore formulation both with and without anti-oxidants and fatty acids, they heal the cold sore at a much faster rate 10-40% when tested on a cold sore sufferer The same experiment was done with virally infected cells and the combination of pyruvate and α-Ketoisovalerate with SRF decreased viral plaque formation by 50%. Viral plaques are a direct measure of viral numbers in infected cells. […] Other antivirals were evaluated with SRF to determine if the addition of SRF could reduce the skin irritation produced by Foscarnet sodium, Ribavirin, imiquimod, vidarabine, ganciclovir sodium, zidovudine, phenol, amantadine hydrochloride, and interferon. alpha.-n3. Even though some of these anti virals are not effective against a cold sore, they were evaluated on human cold sores to determine if SRF could reduce the irritation and enhance healing at the infection site. All formula with SRF healed cold sore two days faster than non-treatments and when this formula was combined with antiviral, like acyclovir or docosonal, the viral lesions healed 1.5 days faster than the commercial antiviral agent alone (Abreva or acyclovir). […]

A further series has as its system HSV-1 or 2. Kind of series: Viral plaques in virally infected cells, HSV. It is filed as cell-based. An excerpt: Results: The primary end points were the levels of IL-8 and IL-1 after treatment with an immunostimulators, and SRF. […] IL-8 activates neutrophils to increase their numbers at the infected site. […] IL-1 increases inflammation and decreases healing times. […] The same experiment was done with virally infected cells and the SRF in combination with immunostimulators decreased viral plaque formed by HSV-1 or 2 by 70% and HPV-18 decreased by 82%. Viral plaques are a direct measure of viral numbers in infected cells.

The test system of series [1] is cultured human dermal fibroblasts. Kind of series: Procollagen production in cultured human dermal fibroblasts (ELISA). It is filed as cell-based. (An ELISA detects its analyte on a solid surface through an enzyme-linked reagent.)
For series [2], the system named is Doxorubicin treated wounded hairless rats. The experiment in a line: Rat wound strength healing study, doxorubicin-impaired wounds. It is filed as in vivo. As to conditions: for Days to healing: Doxorubicin treated wounded hairless rats, topical, 2% pyruvate salts, 1% L proline, 1% L-citrulline; for Percentage of wound breaking strength, by day 21: compared to non-wounded normal skin (100%). The protocol:
Wound breaking strength is a measurement of wound strength after injury compared to normal noninjuried skin. Fourteen groups of five rats each were studied. The SRF was administered topically daily. All groups were wounded at postoperative day 0, at which time Doxo was given to all Groups. All wounds were harvested at POD 21, and the mean wound breaking strength (WBS) of each group was obtained using an Instron Tensiometer.

The next series has as its system HPV 16 or 18. The experiment in a line: Viral plaque reduction, patients with vaginal HPV treated with SRF cream containing imiquimod. As to conditions: human, in vivo. As to the method:
Percentage of Viral Plaque Reduction in Virally Infected Cells in Humans
A total of 15 patients with vaginal HPV 16 or 18 were treated with the SRF cream that also contained imiquimod. […] SRF reduces viral plaques in virally infected cells by 22-34%. Unexpectedly, the combination of SRF and Imiquimod produced the best results, by reducing the viral plaques over 92%, eliminating the virus from most of the infected cells. This tissue culture data along with data from humans, confirms that this combination worked.

The test system of series [3] is laser wounds on the left arm. Kind of series: Pigmentation study on laser wounds. It is filed as in vivo. As to conditions: range 1-10, 10 totally normal. The source says: Six laser wounds were made on the left arm. As an example, Mupirocin was placed on the first wound site, Mupirocin plus sodium pyruvate was placed on the second wound site and Mupirocin with SRF was placed on third wound site. The same process was repeated with another drug for sites 4-6. Every two days the bandages coated with the drugs were removed and replaced five times. Pigmentation measurements range from 1-10 with 10 being totally normal. The mupirocin drug formulas averaged a 4.9 for pigmentation. […]. The addition of the SRF averaged 7.45 a […] increase in pigmentation.

In series [4] the test system is UVB-induced wrinkle formation. Kind of series: Topical alpha-ketoglutarate on UVB-induced wrinkle formation. It is filed as in vivo, human. Particulars: 1% topical, 6 weeks.
Series [5] deals with skin laser wounds in patients. The experiment in a line: Salts of pyruvate and SRF on skin laser wounds in patients: healing and irritation. The protocol: as §1
A further series relates to cold sores. Kind of series: Cold sore treatment, 15 subjects. Particulars: human, in vivo.
The next series concerns non-cancerous cells. Kind of series: Viable non-cancerous cells after incubation with anticancer drugs in various media. Type of series: cell-based.
A further series deals with wounded hairless Rats. Kind of series: Nitric oxide production and days to healing in wounded hairless rats. It is filed as in vivo, rat. Particulars: topical.
The nature of series [6]: Amount of salts delivered in the pyruvate formulations compared to amounts in human blood. Particulars: amount delivered in the pyruvate formulation.
Where [7] appears, read: same concentration of pyruvate for each salt, compared with sodium pyruvate formulations or base.

Turning to `O=C(O)C(=O)CBr` [3-bromopyruvate], in the series with tumors, the “reduction of tumor sizes” value turned out to be 60%.
Turning to `Nc1nc2c(ncn2COCCO)c(=O)[nH]1` [Acyclovir], in the series on wounds, the “Drugs in commercial formula with SRF erythema” value worked out at 7, the “Drugs in commercial formula with sodium pyruvate only erythema” value amounted to 5, the “Drugs in commercial formula erythema” value turned out to be 4 and the “Drug in commercial formula with SRF. Days to healing” value was 10 days. Further, in the series on wounds, the “Drug in commercial formula with sodium pyruvate only. Days to healing” value is listed as 13 days and the “Drug in commercial formula Days to healing” value was found to be 18 days. In addition, in the series on virally infected cells, the “decrease of viral plaque formation” value amounted to 60%. In addition, in the series with HSV-1 or 2, the “decreased viral HSV plaques” value is given as 60%.
As for `O=C(O)[C@@H]1CCCN1C(=O)OCc1ccccc1` [Cbz-Pro, N-benzyloxycarbonyl-L-proline], in series [1] (prolidase inhibitor added), the “procollagen synthesis by alpha-ketoglutarate” value is recorded as “inhibited procollagen synthesis”.
In the case of `COc1cccc2c1C(=O)c1c(O)c3c(c(O)c1C2=O)C[C@@](O)(C(=O)CO)C[C@@H]3O[C@H]1C[C@H](N)[C@H](O)[C@H](C)O1` [Doxorubicin], the “impaired normal wound strength by” value in series [2] (Doxo 6 mg/kg i.v., POD 21) came to 40%.
Turning to `CC(C)Cn1cnc2c(N)nc3ccccc3c21` [Imiquimod], the “reduction of viral plaques in virally infected cells” value in the series with HPV 16 or 18 was 25-40%.
Consider `C/C(=C\C(=O)OCCCCCCCCC(=O)O)C[C@@H]1OC[C@H](C[C@@H]2O[C@H]2[C@@H](C)[C@H](C)O)[C@@H](O)[C@H]1O` [Mupirocin], for which, in the series on wounds, the “Drugs in commercial formula with SRF erythema” value is 8, the “Drugs in commercial formula with sodium pyruvate only erythema” value was determined as 6, the “Drugs in commercial formula erythema” value is on record as 4 and the “Drug in commercial formula with SRF. Days to healing” value turned out to be 11 days. Further, in the series on wounds, the “Drug in commercial formula with sodium pyruvate only. Days to healing” value came to 15 days and the “Drug in commercial formula Days to healing” value was 20 days. In addition, the Pigmentation measurement in series [3] is recorded as 4.9.
In the case of `O=C(O)CCC(=O)C(=O)O` [alpha-ketoglutarate], the wrinkle formation result in series [4] was “decreased wrinkle formation”. Further, the stimulated procollagen production in series [1] (10 microM, compared to vehicle (dH(2)O)-treated control cells) was 25.6+/−4.6%. The activities of prolidase entry in series [1] (fibroblasts) is recorded as “increased”.
`CC(=O)C(=O)O.N` [ammonium pyruvate]: the irritation or toxicity entry in series [5] (human, in vivo) was “irritating and possibly toxic”. Further, the wound healing results in series [5] (setting [7]) is listed as “slight increases in healing; also recorded: did not produce increases in healing over the base”.
For the compound `CCCCCCCCCCCCCCCCCCCCCCO` [docosonal], the “cold sore efficacy, lesion healing” value with cold sores is listed as “better efficacy with the addition of SRF”.
Take `CC(=O)C(=O)[O-].[Li+]` [lithium pyruvate]: in series [5] (human, in vivo), the irritation or toxicity entry is “irritating and possibly toxic”. Moreover, the wound healing results in [5] (setting [7]) is “slight increases in healing; also recorded: did not produce increases in healing over the base”.
As for `O=C1[O][Pt]2([NH][C@@H]3CCCC[C@H]3[NH]2)[O]C1=O` [oxaliplatin], in the series on non-cancerous cells, the “Percentage of viable cells, Drugs in commercial formula” value turned out to be 24%; the “Percentage of viable cells, Drugs in commercial formula sodium pyruvate without SRF” value came to 41%; the “Percentage of viable cells, Drugs in commercial formula with SRF” value is 95%. For the same compound, the “Percentage of viable cells after incubation with drugs” value (“Percentage … with drugs” below) in the series with non-cancerous cells (drug) is recorded as 23%. Also, the “Percentage of viable cells, Drugs in commercial formula with SRF repeat study” value (“Percentage … with SRF repeat study” for short) in the series with non-cancerous cells (repeat study) is 98%.
As to `Oc1ccccc1` [phenol], the “cold sore efficacy, lesion healing” value in the series with cold sores is listed as “did not work very well”.
Regarding `CC(=O)C(=O)[O-].[Na+]` [sodium salt of pyruvic acid, sodium pyruvate], the irritation or toxicity entry in [5] (human, in vivo) is recorded as “no irritation”. Moreover, in series [5] (setting [7]), the wound healing results is recorded as “enhanced healing”.
Turning to Bevacizumab, in the series on non-cancerous cells, the “Percentage … with drugs” value was 21%; the “Percentage of viable cells, Drugs in commercial formula” value is 27%; the “Percentage of viable cells, Drugs in commercial formula sodium pyruvate without SRF” value amounted to 40%; the “Percentage … with SRF repeat study” value was determined as 87%.
As to Bleomycin, in the series on non-cancerous cells, the “Percentage of viable cells, Drugs in commercial formula” value is 33%; the “Percentage of viable cells, Drugs in commercial formula sodium pyruvate without SRF” value amounted to 47%; the “Percentage of viable cells, Drugs in commercial formula with SRF” value stood at 98%. Also, the “Percentage … with drugs” value in the series with non-cancerous cells (drug) amounted to 31%. Moreover, the “Percentage … with SRF repeat study” value in the series with non-cancerous cells (repeat study) amounted to 98%.
As for Calcium pyruvate, in series [2], the Days to healing stood at 14 days and the “Percentage of wound breaking strength, by day 21” value is 42%. For the same compound, in the series with wounded hairless Rats, the “% of NO levels against normal nonwounded skin” value stood at 22% and the Days to healing was found to be 15 days.
In the case of Magnesium pyruvate, the wound healing results in [5] (human, in vivo) is recorded as “slight increases in healing; also recorded: did not produce increases in healing over the base”. Further, in [2], the Days to healing was found to be 14 days and the “Percentage of wound breaking strength, by day 21” value came to 44%. For the same compound, in the series with wounded hairless Rats, the “% of NO levels against normal nonwounded skin” value worked out at 36% and the Days to healing is on record as 13 days.
With aluminum pyruvate, the wound healing results in series [5] (setting [7]) is “slight increases in healing; also recorded: did not produce increases in healing over the base”.
On the same count and under the same terms, for manganese pyruvate the value was “slight increases in healing; also recorded: did not produce increases in healing over the base”.
Turning to zinc pyruvate, the “delivered salt relative to blood levels” value in series [6] is reported as 840 × blood levels. The wound healing results in series [5] (setting [7]) is reported as “slight increases in healing; also recorded: did not produce increases in healing over the base”. Besides, the irritation or toxicity result in series [5] (skin) is “irritating and possibly toxic”.
